Measurements as given in patent US4575550A, “Platinum complexes” (Shionogi & Co., Ltd., priority 1981, dated 1986).

Columns and labels:
[1] = tested on: Leukemia L1210 ascites cells; experiment: Antitumor activity against L1210 (Experiment 2, intraperitoneal); assay type: in vivo, BDF1 mice; conditions: i.p.
Procedure: Leukemia L1210 ascites cells (10^5 cells) in mice are intraperitoneally inoculated to BDF1 mice (4 to 10 mice are employed in each test group), and on the next day a predetermined amount of the test compounds is administered intraperitoneally. The solvent for injection consists of 0.9% NaCl, 0.4% Polysorbate 80, 0.5% CMC, and 0.5% benzyl alcohol suspension.
From the average survival days (a) in the test group and those (b) of the untreated control group, the increase of lifespan (ILS) is calculated according to the following expression. [formula]

Sarcoma 180 tumor cells [2] = experiment: Antitumor activity against Sarcoma-180 (Experiment 4, intravenous for 5 days); assay type: in vivo, DS mice; conditions: i.v., 5% glucose solution; for ED50: 14400 min
Procedure: (§1) Sarcoma 180 tumor cells (5×10^6 cells) are inoculated to DS mice (6 to 8 mice are employed in each test group) subcutaneously, and a predetermined amount of the test compounds is administered intraperitoneally for 5 days continuously from the next day of the inoculation.
The test was carried out in the same manner as in Experiment 1, wherein the test compounds were administered intravenously for 5 days.
The evaluation was made in the same manner as in Experiment 1.

Sarcoma 180 tumor cells [3] = experiment: Antitumor activity against Sarcoma-180 (Experiment 1, intraperitoneal for 5 days); assay type: in vivo, DS mice; conditions: i.p.; for ED50 (effective dose which inhibits the growth of tumors by 50%): 14400 min
Procedure: as §1

kidney = experiment: Nephro-toxicity (Experiment 3, once intraperitoneally); assay type: in vivo, male Sprague Dawley rats; set-up: key: .uparw.: increase; slight increase; .dwnarw.: decrease; ±: no change; conditions: once i.p., (A) 10 mg/kg, (B) 5 mg/kg, solvent 1: 5% glucose
Text: Seven weeks-old male Sprague Dawley rats are separately accommodated in metabolic cages of stainless steel, and solid feed (Clea Japan, INC., CA-1 for breeding) and water are given so that they can take them freely. They are adapted for 3 days and then the test compounds are once administered to rats intraperitoneally at 10:00 a.m. […] The urine excreted during a period of 10 a.m. on the day of administration to 10 a.m. on the next day is defined as urine of the first day; on the urine of the 0-4th days the volume of urine excreted, creatinine, osmotic pressure, urinary enzyme N-acetyl-β-D-glucosaminidase (NAG), and lysozyme (LEZ) are measured, and further urinary protein and urinary sugar are examined with Labstix®. In the morning on the 5th day the rats are anatomized under anesthesia with Ouropan-Soda®(Shionogi & Co., Ltd.; Hexobarbital sodium), and the blood and pathologic specimens of the kidney and the liver are collected in order to determine the level of plasma urea nitrogen and creatinine, and osmotic pressure.

[4] = dose 2 × 1 (dose unit not given)
[5] = dose 5 × 1 (dose unit not given)
[6] = dose 10 × 1 (dose unit not given)
[7] = dose 20 × 1 (dose unit not given)
[8] = 0.9% NaCl, 0.4% Polysorbate 80, 0.5% CMC, 0.5% benzyl alcohol suspension

## N.N.[Cl][Pt][Cl] [(B), Cisplatin, reference compound]
[1]; [4]
  increase of lifespan (ILS): 11%
[1]; [5]
  increase of lifespan (ILS): 29%
[1]; [6]
  increase of lifespan (ILS): > 84%
[1]; [7]
  increase of lifespan (ILS): -26%
Sarcoma 180 tumor cells [2]
  ED50: 4.5 mg/kg
Sarcoma 180 tumor cells [3]; [8]
  ED50 (effective dose which inhibits the growth of tumors by 50%): 7.3 mg/kg
Sarcoma 180 tumor cells [3]; solvent 5% glucose solution
  ED50 (effective dose which inhibits the growth of tumors by 50%): 5.8 mg/kg

## N.N.O=C1C[O][Pt][O]1 [C, Glycolato-cis-diammineplatinum(II)]
Sarcoma 180 tumor cells [2]
  ED50: 18.7 mg/kg

## N.N.O=C1COCC(=O)[O][Pt][O]1 [D, Diglycolato-cis-diammineplatinum(II)]
Sarcoma 180 tumor cells [2]
  CI (curative index): 3.3
  LD50: 80.0 mg/kg
  ED50: 24.1 mg/kg

## Glucuronato-cis-diammineplatinum(II) [(A)]
[1]; [4]
  increase of lifespan (ILS): 4%
[1]; [5]
  increase of lifespan (ILS): 12%
[1]; [6]
  increase of lifespan (ILS): 14%
[1]; [7]
  increase of lifespan (ILS): > 55%
Sarcoma 180 tumor cells [2]
  CI (curative index): 2.9
  LD50: 186 mg/kg
  ED50: 63.4 mg/kg
kidney
  Body Weight (g): ±
  Creatinine Clearance: ±
  Excrement of Creatinine (mg/24 hrs./100 g BW): ±
  Excrement of Solute (mOsm/24 hrs./100 g BW): ±
  Kidney Weight: ±
  LEZ (urinary lysozyme): ±
  Liver Weight: ±
  Osmotic Pressure of Urine (mOsm/kg): ±
  Urinary Glucose: ±
  Urinary Protein: ±
  Volume of Urine (ml/24 hrs.): ±
kidney; 5th day
  Plasma Creatinine: ±
  Plasma Osmotic Pressure: ±
  Plasma Urea Nitrogen: ±
Sarcoma 180 tumor cells [3]; [8]
  CI (curative index): 3.3
  LD50 (50% lethal dose): 113.5 mg/kg
  ED50 (effective dose which inhibits the growth of tumors by 50%): 34 mg/kg
Sarcoma 180 tumor cells [3]; solvent 5% glucose solution
  CI (curative index): 2.8
  LD50 (50% lethal dose): 93.4 mg/kg
  ED50 (effective dose which inhibits the growth of tumors by 50%): 33.4 mg/kg

## Glycerato-cis-diammineplatinum(II)
Sarcoma 180 tumor cells [2]
  CI (curative index): 4.2
  LD50: 186.6 mg/kg
  ED50: 44 mg/kg
